The results in this text go back to patent publication US20240390429A1, “METHOD AND FORMULATION FOR TREATING RESPIRATORY DISEASES” (ENTEROBIOME INC., priority 2019, published 2024).

Holding throughout (assay type): cell-based
Assay [1] concerns Bacteroides thetiotaomicron ATCC 29741. Briefly: MIC by broth microdilution (CLSI), QC strain. (In general: Broth dilution looks for growth in wells or tubes with falling amounts of substance.)
Assay [2] concerns Akkermansia muciniphila ATCC BAA-835. As to the kind of experiment: MIC by broth microdilution (CLSI), type strain. Conditions: for MIC: Akkermansia muciniphila, ATCCBAA835, test strain ATCC BAA-835, broth microdilution; for Susceptibility category by MIC breakpoints: test strain ATCC BAA-835, breakpoints per antibiotic in c1-c3.
Assay [3] has as its system Akkermansia muciniphila EB-AMDK19. As to the kind of experiment: MIC by broth microdilution (CLSI), isolated strain. The conditions noted are these: for MIC: Akkermansia muciniphila, EBAMDK19, test strain EB-AMDK19, broth microdilution; for Susceptibility category by MIC breakpoints: test strain EB-AMDK19, breakpoints per antibiotic in c1-c3.

Converted amounts (≈) assume the structure as drawn. Where only a bound is given, the exact number is not on record here.

As usually defined, the MIC is the lowest concentration that inhibits growth of the organism. For the compound `COc1c(N2C[C@@H]3CCCN[C@@H]3C2)c(F)cc2c(=O)c(C(=O)O)cn(C3CC3)c12` [MXF, moxifloxacin], the MIC is 8 µg/mL (≈ 19.9 µM) in assay [1] (Bacteroides, ATCC29741); over 32 µg/mL in assay [2]; over 32 µg/mL in assay [3]. The “Susceptibility category by MIC breakpoints” value (from here on “Susceptibility category”) in assay [2] and in assay [3] was “(R)” throughout.
Consider `Cc1ncc([N+](=O)[O-])n1CCO` [MTZ, metronidazole], for which the MIC was 2 µg/mL (≈ 11.7 µM) in assay [1] (Bacteroides, ATCC29741); at most 0.25 µg/mL in assay [2]; 0.5 µg/mL (≈ 2.92 µM) in assay [3]. In addition, the “Susceptibility category” value in assay [2] and in assay [3] was “(S)” each time.
On to Piperacillin-tazobactam [PTZ], for which, in assay [1] (QC strain ATCC 29741, broth microdilution), the minimal inhibitory concentration (MIC) is 8/4. Moreover, the “Susceptibility category” value in assay [2] and in assay [3] was “(S)” throughout.
`CO/N=C(\C(=O)N[C@@H]1C(=O)N2C(C(=O)O)=CCS[C@H]12)c1csc(N)n1` [CTZ, ceftizoxime]: the MIC in assay [1] (Bacteroides, ATCC29741) is 16 µg/mL (≈ 41.7 µM); in assay [2], 2 µg/mL (≈ 5.22 µM); in assay [3] it was 1 µg/mL (≈ 2.61 µM). For the same compound, the “Susceptibility category” value in assay [2] and in assay [3] was “(S)” each time.
For the compound `CCC[C@@H]1C[C@@H](C(=O)N[C@@H]([C@H]2O[C@H](SC)[C@H](O)[C@@H](O)[C@H]2O)[C@H](C)Cl)N(C)C1` [CLI, clindamycin], in assay [2], the minimal inhibitory concentration (MIC) was at most 0.125 µg/mL and the “Susceptibility category” value is reported as “(S)”. Further, in assay [3], it took 4 µg/mL (≈ 9.41 µM) to inhibit growth (MIC) and the “Susceptibility category” value is reported as “(I)”.
On to `C[C@@H](O)[C@H]1C(=O)N2C(C(=O)O)=C(S[C@@H]3CN[C@H](C(=O)N(C)C)C3)[C@H](C)[C@H]12` [MEM, meropenem], for which the minimum inhibitory concentration (MIC) came to 0.5 µg/mL (≈ 1.3 µM) in assay [1] (Bacteroides, ATCC29741); 1 µg/mL (≈ 2.61 µM) in assay [2]; 0.5 µg/mL (≈ 1.3 µM) in assay [3]. Further, the “Susceptibility category” value in assay [2] and in assay [3] was “(S)” in each case.
`O=C(N[C@H](CO)[C@H](O)c1ccc([N+](=O)[O-])cc1)C(Cl)Cl` [CHL, chloramphenicol]: the MIC came out at 8 µg/mL (≈ 24.8 µM) in assay [1] (Bacteroides, ATCC29741); 4 µg/mL (≈ 12.4 µM) in assay [2]; 4 µg/mL (≈ 12.4 µM) in assay [3]. Also, the “Susceptibility category” value in assay [2] and in assay [3] was “(S)” in each case.
